Laboratory results as given in ChEMBL document CHEMBL1147274, “Isoflavans and a Stilbene from Wood of the Decay-Resistant Tropical Tree Diphysa robinioides” (1986).
Values after ≈ are worked out from the molar mass of the structure shown. Active and inactive are the calls of the source. The calls are words filed in the database; no cut-off is given here.

Experiments:
[1] = system: Klebsiella pneumoniae; test: Antibacterial activity against Klebsiella pneumoniae ATCC 10031; type: functional
[2] = system: Candida albicans; test: […] activity against Candida albicans ATCC 10231; type: functional
[3] = system: Mycolicibacterium smegmatis; test: Antibacterial activity against Mycobacterium smegmatis ATCC 607; type: functional
[4] = system: Staphylococcus aureus; test: Antibacterial activity against Staphylococcus aureus ATCC 13709; type: functional
[5] = system: Pseudomonas aeruginosa; test: Antibacterial activity against Pseudomonas aeruginosa ATCC 27853; type: functional, organism-based
[6] = system: Escherichia coli; test: Antibacterial activity against Escherichia coli ATCC 9637; type: functional
[7] = system: Salmonella enterica subsp. enterica serovar Gallinarum; test: Antibacterial activity against Salmonella gallinarum ATCC 9184; type: functional

MIC [1]	MIC [2]	MIC [3]	MIC [4]	MIC [5]	MIC [6]	MIC [7]	Structure (SMILES)
2.5 µg/mL	inactive	1.25 µg/mL	5 µg/mL	inactive	5 µg/mL	50 µg/mL	CN[C@@H]1[C@H](O[C@H]2[C@H](O[C@H]3[C@H](O)[C@@H](O)[C@H](N=C(N)N)[C@@H](O)[C@@H]3N=C(N)N)O[C@@H](C)[C@]2(O)C=O)O[C@@H](CO)[C@H](O)[C@H]1O.CN[C@@H]1[C@H](O[C@H]2[C@H](O[C@H]3[C@H](O)[C@@H](O)[C@H](N=C(N)N)[C@@H](O)[C@@H]3N=C(N)N)O[C@@H](C)[C@]2(O)C=O)O[C@@H](CO)[C@H](O)[C@H]1O.O=S(=O)(O)O.O=S(=O)(O)O.O=S(=O)(O)O [STREPTOMYCIN SULFATE]
inactive	inactive	inactive	12.5 µg/mL (≈ 23 µM)	inactive	inactive	inactive	O=C1c2c(O)cc(O)cc2OC(c2ccc(O)cc2)C1C1C(=O)c2c(O)cc(O)cc2OC1c1ccc(O)cc1 (stereo unspecified) [CHAMAEJASMIN]
inactive	12.5 µg/mL (≈ 36.7 µM)	inactive	6.25 µg/mL (≈ 18.4 µM)	inactive	inactive	inactive	COc1ccc([C@H]2COc3c(ccc(O)c3CC=C(C)C)C2)c(O)c1
